This is an account of results in patent US8951982B2, “Methods and compositions for the treatment of eye disorders with increased intraocular pressure” (Sylentis S.A.U., priority 2004, dated 2015).

The subject of one data set is PTGS2. As to the kind of experiment: siRNA transfection of cells, real time PCR of target gene expression. The class given is cell-based. Particulars: 100 nM siRNA, mean ± SD. On the procedure:
(§1) Cells (either NPE, OMDC, or HEK293 cells) were incubated with various siRNA molecules and assayed for expression of the native mRNA corresponding to the siRNA molecule. One day prior to transfection, 2−4×10^5 cells were seeded into each well of a 6 well plate in 3 ml of growth medium (DMEM, 10% serum, antibiotics and glutamine) and incubated under normal growth conditions (37° C. and 5% CO2). Lipofectamine 2000 Reagent (Invitrogen Corporation, Carlsbad, Calif.) was used to transfect the cells with the siRNA molecules. The protocol supplied by the manufacturer was followed. Briefly, siRNA molecules were added to cells that were 30%-50% confluent to a final concentration of 100 nM. Prior to addition to the cells, the siRNA molecule was diluted in 250 μl DMEM and incubated at room temperature for 5 minutes. The siRNA was then mixed with 6 μl of Lipofectamine 2000 Reagent that also had been diluted in 250 μl DMEM and the mixture was incubated at room temperature for 20 minutes. The siRNA/Lipofectamine mixture was added to the cells drop-wise with 2 ml of fresh growth medium low in antibiotics. After swirling the plates to ensure uniform distribution of the transfection complexes, the cells were incubated under normal growth conditions for 24 hours. After incubation with either of the transfection complexes, the medium was removed and replaced with 3 ml of fresh complete growth medium. mRNA was collected from cells at 24, 48 and 72 hours post-transfection.
(§2) After transfection and incubation with a siRNA molecule, total RNA fractions were extracted from cells using protocols well known in the art. The effect of siRNAs on target gene expression was analyzed by real time PCR and semi-quantitative PCR according to standard protocols. Approximately 250 ng of total RNA was used for reverse transcription followed by PCR amplification with specific primers for the target gene in a reaction mixture containing SYBR Green I Dye (Applied Biosystems, Foster City, Calif.). Basic PCR conditions comprised an initial step of […], followed by 40 cycles of 5 s at 95° C., 10 s at 62° C. and 15 s at 72° C. Quantification of beta-actin mRNA was used as a control for data normalization.
(§3) The values represent the mean of the percentage of siRNA interference of each gene expression once normalized with the control cells and their standard deviations.
A general note: Real-time PCR tracks product formation cycle by cycle.

Data set [1] deals with Normotensive New Zealand White rabbits. As to the kind of experiment: In vivo rabbit model of IOP (contact tonometer). Particulars: for decrease of IOP over a saline control: figure legends (FIGS. 5-8), 256 μg dose of siRNA per administration; for IOP Reduction (% of saline control): mean normalized maximum percentage of IOP reduction ± SD, topical to corneal surface, once daily for four consecutive days. On the procedure: Normotensive New Zealand White rabbits (males, 2-3 kg) were used in the in vivo assays. The animals were kept in individual cages with free access to food and water. Animals were submitted to artificial 12 hours light/darkness cycles to avoid uncontrolled circadian oscillations of IOP and all experiments were performed at the same time of day to control for any fluctuations in IOP due to circadian oscillations. Animal handling and treatment were carried out in accordance with the European Communities Council Directive (86/609/EEC) and the statement of the Association for Research in Vision and Ophthalmology on the Use of Animals in Ophthalmic and Vision Research. Each animal was used for only one experiment.
IOP measurements were done using a contact tonometer (TonoPen XL, Mentor, Norwell, Mass.) due to past success of measuring intraocular pressures within the range of 3 to 30 mm Hg in rabbits (Abrams et al., 1996, Invest Ophthalmol Vis Sci. 37:940-4). Measurements were performed by delicately applying the tonometer's sensor to the corneal surface of the animal. All measurements fell within the 3 to 30 mm Hg interval with the mean baseline value of intraocular pressure being 17.0±0.39 mm Hg for untreated animals (n=100). In order to avoid distress to the animal, rabbits were topically anesthetized (10 μl of oxibuprocaine/tetracaine, 0.4%/1%, in a saline solution (1/4 v:v)) prior to IOP measurement.
Commercially available drugs were typically administered to the animals by instilling a small volume (typically 40 μl) on the corneal surface. Contralateral eyes were treated with the vehicle alone and were used as controls in each experiment.
siRNA molecules or commercially available drugs were typically administered to the animals as follows. Doses of siRNA in saline solution (0.9% w/v) to a final volume of 40 μl were applied to the corneal surface of one eye each day during four consecutive days. The opposite eye was taken as a control and 40 μl of sterile saline (0.9% w/v) was instilled on it at the same time points. Commercially available drugs were typically administered to the animals by instilling a small volume (typically 40 μl) on the corneal surface. Contralateral eyes were treated with the vehicle alone and were used as controls in each experiment. The IOP was measured before each application and at 2 h, 4 h and 6 h following the instillation for 10 days.
The data are summarized in Table 2 where values represent the mean of the normalized maximum percentage of IOP reduction after siRNA treatment and their standard deviations. The decrease in IOP was statistically significant for all the treated targets.

The next data set relates to PTGS1. The experiment in a line: siRNA transfection of cells, real time PCR of target gene expression. The conditions noted are these: 100 nM siRNA, mean ± SD. The class given is cell-based. On the procedure: as §1, §2, §3
Another data set has as its system CA2. The description is as above. The class given is cell-based. The conditions noted are these: 100 nM siRNA, mean ± SD, normalized to beta-actin. On the procedure:
as §1, §2, §3

d = 2'-deoxy (DNA)

“SEQ ID NO: 426: siRNA targeting PTGS2 (prostaglandin endoperoxide synthase 2) (GCAGGCUAAUACUGAUAGG; 3' dTdT, sugars by position and backbone not given here; listed as Homo sapiens)”: the “% of gene transcript level in control cells” value (shortened to “% of gene transcript level”) in the data set with PTGS2 (24 h post-transfection) was found to be 68.68 ± 12.48%. In the data set on PTGS2 (48 h post-transfection), the “% of gene transcript level” value is given as 70.17 ± 19.21%. For the same substance, in data set [1], the “decrease of IOP over a saline control” value stood at 22% and the “IOP Reduction (% of saline control)” value was 23.78 ± 2.27%. Consider “SEQ ID NO: 353: siRNA targeting PTGS1 (prostaglandin endoperoxide synthase 1) (CCAUCUCUACCACUGGCAC; 3' dTdT, sugars by position and backbone not given here; listed as Homo sapiens)”, for which the figures for the “% of gene transcript level” value in the data set with PTGS1 (24 h post-transfection) and with PTGS1 (48 h post-transfection) were 42.25 ± 13.76% and 42.68 ± 17.00%, respectively. As for “SEQ ID NO: 421: siRNA targeting PTGS2 (CACAACAGAGUAUGCGAUG; 3' dTdT, sugars by position and backbone not given here; listed as Homo sapiens)”, the entries for the “% of gene transcript level” value in the data set with PTGS2 (24 h post-transfection) and in the data set with PTGS2 (48 h post-transfection) were 81.00 ± 13.54% and 66.85 ± 18.67%, respectively. Take “SEQ ID NO: 369: siRNA targeting PTGS1 (CAUUGUCAAGACGGCCACA; 3' dTdT, sugars by position and backbone not given here; listed as Homo sapiens)”: the “% of gene transcript level” value in the data set with PTGS1 (24 h post-transfection) is on record as 34.98 ± 14.33%; in the data set on PTGS1 (48 h post-transfection), 26.30 ± 10.91%. In the case of “SEQ ID NO: 139: siRNA targeting human adrenergic, beta-2-, receptor (ADRB2) (CAUUGUGCAUGUGAUCCAG; listed as RNA, chemistry not given here; listed as Homo sapiens)”, the “decrease of IOP over a saline control” value in data set [1] is reported as 22%.

On to “SEQ ID NO: 73: siRNA targeting human carbonic anhydrase II (CA2), 2 thymidine 3' overhang (GGUUGGCAGCGCUAAACCG; 3' dTdT, sugars by position and backbone not given here; listed as Homo sapiens)”, for which the “% of gene transcript level” value in the data set on CA2 (24 h post-transfection) worked out at 76.25 ± 12.60%; with CA2 (48 h post-transfection), 84.57 ± 14.70%. Further, the “decrease of IOP over a saline control” value in data set [1] is 25%. Consider “SEQ ID NO: 774: siRNA targeting AGTR2 (angiotensin II receptor, type 2) (GCAUCUUAUAUAGUUCCCC; two-thymidine 3' overhang, other chemistry not given here; listed as Homo sapiens)”, for which, in data set [1], the “IOP Reduction (% of saline control)” value was 11.22 ± 1.53%. On to “SEQ ID NO: 477: siRNA targeting PTGS2 (CACUGCCUCAAUUCAGUCU; 3' dTdT, sugars by position and backbone not given here; listed as Homo sapiens)”, for which the “% of gene transcript level” value with PTGS2 (24 h post-transfection) is 75.45 ± 14.71%; with PTGS2 (48 h post-transfection), 61.83 ± 16.96%.

For “SEQ ID NO: 54: siRNA targeting CA2 (CUUCCCUGAGGAUCCUCAA; 3' dTdT, sugars by position and backbone not given here; listed as Homo sapiens)”, the results for the “% of gene transcript level” value in the data set with CA2 (24 h post-transfection) and with CA2 (48 h post-transfection) were 37.97 ± 9.78% and 61.45 ± 9.62%, respectively. “SEQ ID NO: 66: siRNA targeting CA2 (CUUCACUUGGUUCACUGGA; 3' dTdT, sugars by position and backbone not given here; listed as Homo sapiens)”: the “% of gene transcript level” value with CA2 (24 h post-transfection) was 35.30 ± 9.73%; with CA2 (48 h post-transfection), 51.14 ± 16.49%. As to “SEQ ID NO: 1838: siRNA targeting rabbit carbonic anhydrase II; rabbit homolog of SEQ ID NO: 73 (GAUUGGCAGUGCUACACCA; 3' dTdT, sugars by position and backbone not given here; duplex siRNA; listed as Oryctolagus sp.)”, in data set [1], the “IOP Reduction (% of saline control)” value is reported as 24.84 ± 3.41%.

Regarding “SEQ ID NO: 5: siRNA targeting carbonic anhydrase IV (CA4) (CAUCGUCACCACCAAGGCA; two-thymidine 3' overhang, other chemistry not given here; listed as Homo sapiens)”, in data set [1], the “decrease of IOP over a saline control” value is given as 16% and the “IOP Reduction (% of saline control)” value was 14.47 ± 5.00%. For the substance “SEQ ID NO: 1858: siRNA, rabbit homolog of SEQ ID NO: 619; target printed ADRAM (GAACUUUCAUGAGGACACC; 3' dTdT, sugars by position and backbone not given here; duplex siRNA; listed as Oryctolagus sp.)”, the “IOP Reduction (% of saline control)” value in data set [1] stood at 17.48 ± 1.30%. Turning to “SEQ ID NO: 522: siRNA targeting carbonic anhydrase XII (CA12) (AUGAUCAACAACUUCCGGC; two-thymidine 3' overhang, other chemistry not given here; listed as Homo sapiens)”, in data set [1], the “IOP Reduction (% of saline control)” value is 24.30 ± 1.29%.
